Results published in EPA's CvTdb concentration-time database.
Blank lines part the entries; values can stand above or below the compound they belong to.

Key:
[1] = test system: Rat; experiment: concentration in plasma after dosing; details: dosed: Perfluorodecanoic acid, 2 mg/kg, iv, Male, F344
[2] = test system: Rat; experiment: concentration in kidney after dosing; details: 1 h; dosed: Perfluorodecanoic acid; 10 mg/kg; oral; Female; Harlan Sprague Dawley
[3] = test system: Rat; experiment: concentration in kidney after dosing; details: 864 h; dosed: Perfluorodecanoic acid; 10 mg/kg; oral; Female; Harlan Sprague Dawley
[4] = test system: Rat; experiment: concentration in liver after dosing; details: 864 h; dosed: Perfluorodecanoic acid; 10 mg/kg; oral; Male; Harlan Sprague Dawley
[5] = test system: Rat; experiment: concentration in plasma after dosing; details: dosed: Perfluorodecanoic acid, 2 mg/kg, iv, Male, F344; remark: listed apart in the source
[6] = test system: Rat; experiment: concentration in plasma after dosing; details: 40 min; dosed: Di-n-butyl phthalate; 20 mg/kg; iv; Male; Sprague-Dawley
[7] = test system: Rat; experiment: concentration in plasma after dosing; details: 5 min; dosed: Di-n-butyl phthalate; 50 mg/kg; oral; Male; Sprague-Dawley
[8] = test system: Rat; experiment: concentration in plasma after dosing; details: 5 min; dosed: Di-n-butyl phthalate; 100 mg/kg; oral; Male; Sprague-Dawley
[9] = test system: Rat; experiment: concentration in plasma after dosing; details: 1 h; dosed: Di-n-butyl phthalate; 20 mg/kg; iv; Male; Sprague-Dawley
[10] = test system: Rat; experiment: concentration in plasma after dosing; details: dosed: dichloroacetic acid, 10 mg/kg, oral, Male, Harlan Sprague Dawley
[11] = test system: Rat; experiment: concentration in plasma after dosing; details: dosed: dichloroacetic acid, 10 mg/kg, oral, Male, Harlan Sprague Dawley; remark: listed apart in the source
[12] = test system: Rat; experiment: concentration in plasma after dosing; details: dosed: dichloroacetic acid, 100 mg/kg, oral, Male, F344
[13] = test system: Rat; experiment: concentration in plasma after dosing; details: 1 h; dosed: Wyeth-14643; 1.0 mg/kg; oral; Male; Sprague-Dawley
[14] = test system: Rat; experiment: concentration in plasma after dosing; details: 0.5 h; dosed: Wyeth-14643; 1.0 mg/kg; oral; Male; Sprague-Dawley
[15] = test system: Rat; experiment: concentration in plasma after dosing; details: 5 h; dosed: Bis 2-Chloroethoxy Methane; 20 mg/kg; iv; Male; F344
[16] = test system: Rat; experiment: concentration in thymus after dosing; details: 2 h; dosed: Bis 2-Chloroethoxy Methane; 20 mg/kg; iv; Male; F344
[17] = test system: Rat; experiment: concentration in plasma after dosing; details: 3 h; dosed: Bis 2-Chloroethoxy Methane; 20 mg/kg; iv; Female; F344
[18] = test system: Rat; experiment: concentration in plasma after dosing; details: 40 min; dosed: Bis 2-Chloroethoxy Methane; 20 mg/kg; iv; Male; F344
[19] = test system: Rat; experiment: concentration in thymus after dosing; details: 7 h; dosed: Bis 2-Chloroethoxy Methane; 20 mg/kg; iv; Male; F344
[20] = test system: Rat; experiment: concentration in plasma after dosing; details: 6 h; dosed: Bis 2-Chloroethoxy Methane; 20 mg/kg; iv; Female; F344
[21] = test system: Rat; experiment: concentration in plasma after dosing; details: 20 min; dosed: Bis 2-Chloroethoxy Methane; 20 mg/kg; iv; Male; F344
[22] = test system: Rat; experiment: concentration in liver after dosing; details: 3 h; dosed: Bis 2-Chloroethoxy Methane; 20 mg/kg; iv; Male; F344
[23] = test system: Rat; experiment: concentration in thymus after dosing; details: 2 h; dosed: Bis 2-Chloroethoxy Methane; 20 mg/kg; iv; Female; F344
[24] = test system: Rat; experiment: concentration in thymus after dosing; details: 40 min; dosed: Bis 2-Chloroethoxy Methane; 20 mg/kg; iv; Male; F344
[25] = test system: Rat; experiment: concentration in plasma after dosing; details: dosed: Fluorotelomer alcohol 8+2, 12 mg/kg, oral, Male, Harlan Sprague Dawley
[26] = test system: Rat; experiment: concentration in brain after dosing; details: 1 h; dosed: Fluorotelomer alcohol 8+2; 24 mg/kg; oral; Male; Harlan Sprague Dawley
[27] = test system: Rat; experiment: concentration in brain after dosing; details: 6 h; dosed: Fluorotelomer alcohol 8+2; 80 mg/kg; oral; Female; Harlan Sprague Dawley
[28] = test system: Rat; experiment: concentration in liver after dosing; details: 3 h; dosed: Thiodiglycolic Acid; 20 mg/kg; iv; Male; Harlan Sprague Dawley
[29] = test system: Rat; experiment: concentration in thymus after dosing; details: 1 h; dosed: Thiodiglycolic Acid; 20 mg/kg; iv; Male; Harlan Sprague Dawley
[30] = test system: Rat; experiment: concentration in thymus after dosing; details: 2 h; dosed: Thiodiglycolic Acid; 20 mg/kg; iv; Male; Harlan Sprague Dawley
[31] = test system: Rat; experiment: concentration in liver after dosing; details: 10 h; dosed: Thiodiglycolic Acid; 20 mg/kg; iv; Female; Harlan Sprague Dawley
[32] = test system: Rat; experiment: concentration in thymus after dosing; details: 10 min; dosed: Thiodiglycolic Acid; 20 mg/kg; iv; Female; Harlan Sprague Dawley
[33] = test system: Rat; experiment: concentration in liver after dosing; details: 10 h; dosed: Thiodiglycolic Acid; 20 mg/kg; iv; Female; Harlan Sprague Dawley; remark: listed apart in the source
[34] = test system: Rat; experiment: concentration in plasma after dosing; details: 10 min; dosed: Thiodiglycolic Acid; 20 mg/kg; iv; Female; Harlan Sprague Dawley
[35] = test system: Rat; experiment: concentration in plasma after dosing; details: 3 h; dosed: Primidone; 30 mg/kg; oral; Male; F344
[36] = test system: Rat; experiment: concentration in plasma after dosing; details: 9 h; dosed: Primidone; 80 mg/kg; oral; Female; F344
[37] = test system: Rat; experiment: concentration in plasma after dosing; details: 18 h; dosed: Primidone; 30 mg/kg; oral; Male; F344
[38] = test system: Rat; experiment: concentration in plasma after dosing; details: 22 h; dosed: Primidone; 130 mg/kg; oral; Female; F344

SMILES: O=C(O)C(F)(F)C(F)(F)C(F)(F)C(F)(F)C(F)(F)C(F)(F)C(F)(F)C(F)(F)C(F)(F)F [Perfluorodecanoic acid]
concentration in plasma ([1]; 1 h): 6520 ng/mL | concentration in plasma ([1]; 528 h): 4120 ng/mL | concentration in plasma ([1]; 3360 h): 71.5 ng/mL | concentration in kidney [2]: 20600 ng/g | concentration in kidney [3]: 16700 ng/g | concentration in liver [4]: 54300 ng/g | concentration in plasma ([5]; 6 h): 6490 ng/mL | concentration in plasma ([5]; 864 h): 2790 ng/mL

SMILES: CCCCOC(=O)c1ccccc1C(=O)O [Mono-n-butyl phthalate]
concentration in plasma [6]: 5350 ng/mL | concentration in plasma [7]: 4780 ng/mL | concentration in plasma [8]: 3830 ng/mL | concentration in plasma [9]: 3480 ng/mL

SMILES: O=C(O)C(Cl)Cl [dichloroacetic acid]
concentration in plasma ([10]; 2 min): 405 ng/mL | concentration in plasma ([10]; 0.5 h): 274 ng/mL | concentration in plasma ([11]; 5 min): 621 ng/mL | concentration in plasma ([11]; 40 min): 137 ng/mL | concentration in plasma ([12]; 20 min): 20400 ng/mL | concentration in plasma ([12]; 8 h): 29200 ng/mL

concentration in plasma [13]: 755 ng/mL | concentration in plasma [14]: 1210 ng/mL
SMILES: Cc1cccc(Nc2cc(Cl)nc(SCC(=O)O)n2)c1C

SMILES: ClCCOCOCCCl [Bis 2-Chloroethoxy Methane]
concentration in plasma [15]: 31 ng/mL | concentration in thymus [16]: 153 ng/g | concentration in plasma [17]: 87.3 ng/mL | concentration in plasma [18]: 1930 ng/mL | concentration in thymus [19]: 17 ng/g | concentration in plasma [20]: 17.6 ng/mL | concentration in plasma [21]: 3180 ng/mL | concentration in liver [22]: 130 ng/g | concentration in thymus [23]: 264 ng/g | concentration in thymus [24]: 8210 ng/g

concentration in plasma ([25]; 0.75 h): 318 ng/mL | concentration in plasma ([25]; 12 h): 6.78 ng/mL | concentration in brain [26]: 2020 ng/g | concentration in brain [27]: 1090 ng/g
SMILES: OCCC(F)(F)C(F)(F)C(F)(F)C(F)(F)C(F)(F)C(F)(F)C(F)(F)C(F)(F)F [Fluorotelomer alcohol 8+2]

SMILES: O=C(O)CSCC(=O)O [Thiodiglycolic Acid]
concentration in liver [28]: 59900 ng/g | concentration in thymus [29]: 1900 ng/g | concentration in thymus [30]: 2260 ng/g | concentration in liver [31]: 4910 ng/g | concentration in thymus [32]: 7780 ng/g | concentration in liver [33]: 1650 ng/g | concentration in plasma [34]: 40400 ng/mL

SMILES: CCC1(c2ccccc2)C(=O)NC(=O)NC1=O [Phenobarbital]
concentration in plasma [35]: 2460 ng/mL | concentration in plasma [36]: 2370 ng/mL | concentration in plasma [37]: 1540 ng/mL | concentration in plasma [38]: 2490 ng/mL
